From US20210395406A1, “REVERSIBLE CROSS-LINKING SYSTEM FOR POLYVINYLAMINES” (SOLENIS TECHNOLOGIES, L.P., priority 2020, published 2021)
≈ marks a conversion by molar mass, not a printed value. Structures can show the parent of a compound that is named as a salt.

How the values were obtained:
[1] = Reversibility of cross-linking by means of pH-change; format: physicochemical; settings: gel of 3.9 g Example 2.1 at pH 7 crosslinked with 0.075 g OBP, after adding 2 ml hydrochloric acid (10 w %)
Procedure: 3.9 g Example 2.1 at 7 pH stained with rhodamine B were crosslinked with 0.075 g OBP dissolved in 1 mL water at RT. The cross-linking reaction produces within a few seconds a solid gel. After adding 2 ml of hydrochloric acid (10 w %) it takes about 2 h till the gel is completely liquefied. When setting the pH back to neutral by adding caustic the gel is instantaneously formed again.

[2] = Oscillatory shear rheology of PVAm hydrogels cross-linked with OBP; format: physicochemical
Procedure: To investigate the mechanical properties of the hydrogel and to confirm the formation of cross-linking points from a mechanical point of view, dynamic rheological measurements were performed. Hydrogel samples with a varying degree of cross-linking (DC=n(OBP)/n(Am) [mol %]) in the range of 1-5 mol % and a water content of 94 wt % were analyzed under oscillatory shear. […] All samples show an elastic response over the entire frequency range, with G′ distinctly exceeding G″ by two magnitudes. Additionally, a frequency independent behavior for G′ is observed.
Rheological properties of the hydrogels were analyzed via oscillatory shear experiments on the strain-controlled rotational rheometer Ares G2 (TA Instruments, Eschborn, Germany). Hydrogel samples with a varying degree of cross-linking (DC) between 1 and 5 mol % (DC=n(OBP)/n(Am) [mol %]) were prepared in a cylindrical PTFE mold with a diameter of ˜30 mm to obtain uniform disc-shaped specimens. The cross-linking agent (OBP) was first dissolved in 1 ml H2O and then mixed with 3 ml of the 6.6 wt % PVAm solution. The mold was sealed and the cross-linking reaction was allowed to proceed overnight.
The test geometry was a 30 mm diameter plate made from aluminum. The geometry was lowered until a constant axial force of 0.5 N was applied to the sample and the temperature was controlled to 25±0.1° C. by a Peltier element (Advanced Peltier System, TA Instruments). First, an oscillatory strain sweep was performed with a constant frequency of f=1 Hz by varying the strain from γ0=0.01-1000% to determine the linear viscoelastic (LVE) regime. The values at a strain of γ0=0.1% were chosen to be representative for the LVE regime. Subsequently, frequency sweeps were employed at a fixed strain of 0.1% while the frequency was varied from 0.03 to 100 Hz. To study the self-healing properties, the sample with DC=3 mol % was cut and subsequently cured in a sealed mold at 70° C. for 3 h.

[3] = Water solubility of cross-linkers

Row | Structure (SMILES) | time till the gel is completely liquefied [1] | mechanical strength ([2]; PVAm hydrogels cross-linked with OBP, at higher DC values, water content 94 wt %) | storage modulus ([2]; PVAm/OBP hydrogel DC=3 mol %, after first self-healing cycle) | storage modulus ([2]; PVAm/OBP hydrogel DC=3 mol %, before first self-healing cycle) | decrease of G′ ([2]; PVAm/OBP hydrogel DC=3 mol %, cut and measured directly without curing) | decrease of the storage modulus ([2]; PVAm/OBP hydrogel DC=3 mol %, first self-healing cycle, cut and cured at 70° C. for 3 h) | solubility [3] | melting point
1 | O=C1CCN(C(=O)C(=O)N2CCC(=O)CC2)CC1 [Example 1.1, 1,2-bis(4-oxopiperidin-1-yl)ethane-1,2-dione] | about 2 h | up to 15 kPa | ~6 kPa | approximately 7 kPa | 42% | 14% | 60 mg/mL (≈ 238 mM) | –
2 | O=C1CCN(C(=O)C(=O)N2CCC(=O)CC2)CC1 (as salt: hydrochloride) (hydrate or solvate) [Example 1.1, 1,2-bis(4-oxopiperidin-1-yl)ethane-1,2-dione] | – | – | – | – | – | – | – | 174 °C
3 | O=C1CCN(C(=O)c2ccc(C(=O)N3CCC(=O)CC3)cc2)CC1 [Example 1.2, 1,1′-Terephthaloylbis(piperidin-4-one)] | – | – | – | – | – | – | 0.5 mg/mL (≈ 1.52 mM) | –
